In US5416073A, “Growth hormone-releasing peptides and method of treating animals, therewith” (The Adminstrators of the Tulane Educational Fund, priority 1985, dated 1995):
Square brackets hold non-standard residues; d marks the D form. Peptide text beside a SMILES is read from it.

Tested on: Growth Hormone Release
Assay: Peptide effects on growth hormone release, plasma GH by RIA in anesthetized male rats
Format: in vivo, rat
Conditions: 15 min
Experimental: In this evaluation, the procedures described by W. A. Murphy et al., Endocrinology 109:491-495 (1980), were employed.
In growth hormone (GH) experiments, male rats (Charles Rivers) were anesthetized with NEMBUTAL® (6 mg per 100 g body weight) which also served to maintain stimulated plasma GH levels. Exactly 30 minutes after the rats were anesthetized, 0.5 mL of saline or the test peptide in saline was administered as a SC bolus. A 1 mL blood sample was drawn from the jugular vein 15 minutes after the injection of the peptide in saline. GH levels were determined using NIADDKD rat GH RIA components.

SMILES: CCCC[C@H](NC(=O)[C@@H](NC(=O)[C@H](CC(=O)O)NC(=O)[C@H](CCC(N)=O)NC(=O)[C@H](CC(C)C)NC(=O)[C@H](CC(C)C)NC(=O)[C@H](CCCCN)NC(=O)[C@H](CCCNC(=N)N)NC(=O)[C@H](C)NC(=O)[C@H](CO)NC(=O)[C@H](CC(C)C)NC(=O)[C@H](CCC(N)=O)NC(=O)CNC(=O)[C@H](CC(C)C)NC(=O)[C@@H](NC(=O)[C@H](CCCCN)NC(=O)[C@H](CCCNC(=N)N)NC(=O)[C@H](Cc1ccc(O)cc1)NC(=O)[C@H](CO)NC(=O)[C@@H](CC(N)=O)NC(=O)[C@@H](NC(=O)[C@H](Cc1ccccc1)NC(=O)[C@@H](NC(=O)[C@H](C)NC(=O)[C@H](CC(=O)O)NC(=O)[C@@H](C)NC(=O)[C@@H](N)Cc1ccc(O)cc1)[C@@H](C)CC)[C@@H](C)O)C(C)C)[C@@H](C)CC)C(=O)N[C@@H](CO)C(=O)N[C@@H](CCCNC(=N)N)C(N)=O [D-Ala^2 -D-Asn^8 -Nle^27, D-alanine^2, D-asparagine^8, Norleucine^27-human Pancreatic Growth Hormone-Releasing(1-29)-amide]
- Plasma GH (dose 0.05 ug/100 g BW SC, saline 203 ± 39): 407 ± 53 ng/mL
- Plasma GH (dose 0.5 ug/100 g BW SC, saline 203 ± 39): 1613 ± 138 ng/mL

SMILES: CCCC[C@H](NC(=O)[C@@H](NC(=O)[C@H](CC(=O)O)NC(=O)[C@H](CCC(N)=O)NC(=O)[C@H](CC(C)C)NC(=O)[C@H](CC(C)C)NC(=O)[C@H](CCCCN)NC(=O)[C@H](CCCNC(=N)N)NC(=O)[C@H](C)NC(=O)[C@H](CO)NC(=O)[C@H](CC(C)C)NC(=O)[C@H](CCC(N)=O)NC(=O)CNC(=O)[C@H](CC(C)C)NC(=O)[C@@H](NC(=O)[C@H](CCCCN)NC(=O)[C@H](CCCNC(=N)N)NC(=O)[C@H](Cc1ccc(O)cc1)NC(=O)[C@H](CO)NC(=O)[C@@H](CC(N)=O)NC(=O)[C@@H](NC(=O)[C@H](Cc1ccccc1)NC(=O)[C@@H](NC(=O)[C@H](C)NC(=O)[C@@H](CC(=O)O)NC(=O)[C@@H](C)NC(=O)[C@@H](N)Cc1ccc(O)cc1)[C@@H](C)CC)[C@@H](C)O)C(C)C)[C@@H](C)CC)C(=O)N[C@@H](CO)C(=O)N[C@@H](CCCNC(=N)N)C(N)=O [D-Ala^2 -D-Asp^3 -D-Asn^8 -Nle^27, D-alanine^2, D-aspartic acid^3, D-asparagine^8, Norleucine27-human Pancreatic Growth Hormone-Releasing(1-29)-amide]
- Plasma GH (dose 0.1 ug/100 g BW SC, saline 383 ± 79): 767 ± 146 ng/mL
- Plasma GH (dose 1.0 ug/100 g BW SC, saline 383 ± 79): 2419 ± 252 ng/mL

SMILES: CCCC[C@H](NC(=O)[C@@H](NC(=O)[C@H](CC(=O)O)NC(=O)[C@H](CCC(N)=O)NC(=O)[C@H](CC(C)C)NC(=O)[C@H](CC(C)C)NC(=O)[C@H](CCCCN)NC(=O)[C@H](CCCNC(=N)N)NC(=O)[C@H](C)NC(=O)[C@H](CO)NC(=O)[C@H](CC(C)C)NC(=O)[C@H](CCC(N)=O)NC(=O)CNC(=O)[C@H](CC(C)C)NC(=O)[C@@H](NC(=O)[C@H](CCCCN)NC(=O)[C@H](CCCNC(=N)N)NC(=O)[C@H](Cc1ccc(O)cc1)NC(=O)[C@H](CO)NC(=O)[C@H](CC(N)=O)NC(=O)[C@@H](NC(=O)[C@H](Cc1ccccc1)NC(=O)[C@@H](NC(=O)[C@H](C)NC(=O)[C@H](CC(=O)O)NC(=O)[C@@H](C)NC(=O)[C@@H](N)Cc1ccc(O)cc1)[C@@H](C)CC)[C@@H](C)O)C(C)C)[C@@H](C)CC)C(=O)N[C@@H](CO)C(=O)N[C@@H](CCCNC(=N)N)C(N)=O [D-Ala^2 -Nle^27, D-alanine^2, Norleucine^27-human Pancreatic Growth Hormone-Releasing(1-29)-amide]
- Plasma GH (dose 0.1 ug/100 g BW SC, saline 278 ± 37): 465 ± 75 ng/mL
- Plasma GH (dose 1.0 ug/100 g BW SC, saline 278 ± 37): 2287 ± 265 ng/mL

SMILES: CC[C@H](C)[C@H](NC(=O)[C@H](C)NC(=O)[C@H](CC(=O)O)NC(=O)[C@H](C)NC(=O)[C@H](Cc1ccc(O)cc1)NC(C)=O)C(=O)N[C@@H](Cc1ccccc1)C(=O)N[C@H](C(=O)N[C@@H](CC(N)=O)C(=O)N[C@@H](CO)C(=O)N[C@@H](Cc1ccc(O)cc1)C(=O)N[C@@H](CCCNC(=N)N)C(=O)N[C@@H](CCCCN)C(=O)N[C@H](C(=O)N[C@@H](CC(C)C)C(=O)NCC(=O)N[C@@H](CCC(N)=O)C(=O)N[C@@H](CC(C)C)C(=O)N[C@@H](CO)C(=O)N[C@@H](C)C(=O)N[C@@H](CCCNC(=N)N)C(=O)N[C@@H](CCCCN)C(=O)N[C@@H](CC(C)C)C(=O)N[C@@H](CC(C)C)C(=O)N[C@@H](CCC(N)=O)C(=O)N[C@@H](CC(=O)O)C(=O)N[C@H](C(=O)N[C@@H](CCSC)C(=O)N[C@@H](CO)C(=O)N[C@@H](CCCNC(=N)N)C(N)=O)[C@@H](C)CC)C(C)C)[C@@H](C)O [N-Ac-hpGRF(1-29)-NH2, N-acetyl Human Pancreatic Growth Hormone-Releasing Factor(1-29)-Amide]
- Plasma GH (dose 1.20 μg/100 g BW SC, saline 342 ± 53): 2518 ± 598 ng/mL
- Plasma GH (dose 3.0 μg/100 g BW SC, saline 342 ± 53): 4899 ± 557 ng/mL

SMILES: CC[C@H](C)[C@H](NC(=O)[C@H](C)NC(=O)[C@@H](CC(=O)O)NC(=O)[C@@H](C)NC(=O)[C@@H](Cc1ccc(O)cc1)NC(C)=O)C(=O)N[C@@H](Cc1ccccc1)C(=O)N[C@H](C(=O)N[C@@H](CC(N)=O)C(=O)N[C@@H](CO)C(=O)N[C@@H](Cc1ccc(O)cc1)C(=O)N[C@@H](CCCNC(=N)N)C(=O)N[C@@H](CCCCN)C(=O)N[C@H](C(=O)N[C@@H](CC(C)C)C(=O)NCC(=O)N[C@@H](CCC(N)=O)C(=O)N[C@@H](CC(C)C)C(=O)N[C@@H](CO)C(=O)N[C@@H](C)C(=O)N[C@@H](CCCNC(=N)N)C(=O)N[C@@H](CCCCN)C(=O)N[C@@H](CC(C)C)C(=O)N[C@@H](CC(C)C)C(=O)N[C@@H](CCC(N)=O)C(=O)N[C@@H](CC(=O)O)C(=O)N[C@H](C(=O)N[C@@H](CCSC)C(=O)N[C@@H](CO)C(=O)N[C@@H](CCCNC(=N)N)C(N)=O)[C@@H](C)CC)C(C)C)[C@@H](C)O [N-acetyl-D-tyrosine^1,D-alanine^2,D-aspartic acid^3-human Pancreatic Growth Hormone-Releasing(1-29)-amine]
- Plasma GH (dose 1.0 μg/100 g BW SC, saline 541 ± 78): 1181 ± 164 ng/mL
- Plasma GH (dose 5.0 μg/100 g BW SC, saline 541 ± 78): 3594 ± 754 ng/mL

SMILES: CC[C@H](C)[C@H](NC(=O)[C@H](C)NC(=O)[C@H](CC(=O)O)NC(=O)[C@@H](C)NC(=O)[C@@H](N)Cc1ccc(O)cc1)C(=O)N[C@@H](Cc1ccccc1)C(=O)N[C@H](C(=O)N[C@@H](CC(N)=O)C(=O)N[C@@H](CO)C(=O)N[C@@H](Cc1ccc(O)cc1)C(=O)N[C@@H](CCCNC(=N)N)C(=O)N[C@@H](CCCNC(=N)N)C(=O)N[C@H](C(=O)N[C@@H](CC(C)C)C(=O)NCC(=O)N[C@@H](CCC(N)=O)C(=O)N[C@@H](CC(C)C)C(=O)N[C@@H](CO)C(=O)N[C@@H](C)C(=O)N[C@@H](CCCNC(=N)N)C(=O)N[C@@H](CCCNC(=N)N)C(=O)N[C@@H](CC(C)C)C(=O)N[C@@H](CC(C)C)C(=O)N[C@@H](CCC(N)=O)C(=O)N[C@@H](CC(=O)O)C(=O)N[C@H](C(=O)N[C@@H](CCSC)C(=O)N[C@@H](CO)C(=O)N[C@@H](CCCNC(=N)N)C(N)=O)[C@@H](C)CC)C(C)C)[C@@H](C)O [[D-Ala^2, Arg^12, 21]-hpGRF(1-29)-NH2, D-alanine^2, Arginine^12,21-human Growth Hormone-Releasing (1-29)-amide] (H-Y[dA]DAIFTNSYRRVLGQLSARRLLQDIMSR-NH2)
- Plasma GH (dose 0.4 μ/100 g BW SC, saline 309 ± 20): 755 ± 131 ng/mL
- Plasma GH (dose 1.0 μ/100 g BW SC, saline 309 ± 20): 1752 ± 289 ng/mL
